This note sets out measurements from ChEMBL document CHEMBL1129133 (Bioorg Med Chem Lett, 1996).

A short description of series [1]: Lipophilicity was determined. The settings on record: octanol/water. The format is physicochemical.
The target in series [2] is cGMP-specific 3',5'-cyclic phosphodiesterase (Homo sapiens, UniProt O76074). The series is described as follows: Inhibition of Phosphodiesterase 5 from human corpus cavernosum.
The target in series [3] is Phosphodiesterase 1 (Rattus norvegicus, UniProt Q63421+Q9EPR9+Q01066). The series can be described thus: Inhibition of Phosphodiesterase 1 from rat liver.
In series [4] the target is Phosphodiesterase 3 (Homo sapiens, UniProt Q14432+Q13370). The series is described as follows: Inhibition of Phosphodiesterase 3 from rabbit platelets. More on the design: species or system Oryctolagus cuniculus. The settings on record: target entry is the homologue from another species.

The compound `CCCc1nn(C)c2c(=O)[nH]c(-c3cc(S(=O)(=O)N4CCN(C)CC4)ccc3OCC)nc12` gave a logD in series [1] of 2.7.

Consider `CCCc1n[nH]c2c(O)nc(-c3ccccc3OCC)nc12`, for which the IC50 was determined as 0.082 µM in series [2] and 0.86 µM in series [3].

For the compound `CCCc1n[nH]c2c(O)nc(-c3ccccc3O)nc12`, the IC50 in series [4] is greater than 100 µM.

For `CCCc1n[nH]c2c(=O)[nH]c(-c3ccccc3)nc12`, in series [4], the IC50 came out at 63 µM. That is a double-digit micromolar value.

On to `CCCc1nn(C)c2c(O)nc(-c3cc(S(=O)(=O)N4CCN(C(N)=O)CC4)ccc3OCC)nc12`, for which the half-maximal inhibitory concentration (IC50) in series [3] came out at 0.11 µM; in series [4], 34 µM. Further, in series [1], the logD turned out to be 2.3.

For `CCOc1ccccc1-c1nc2c(C)nn(C)c2c(=O)[nH]1`, the IC50 in series [3] was 3.3 µM; in series [4], greater than 100 µM.

Take `CCCc1nn(C)c2c(=O)[nH]c(-c3ccccc3[N+](=O)[O-])nc12`: the IC50 in series [4] was greater than 100 µM.

In the case of `CCCc1nn(C)c2c(=O)[nH]c(-c3ccccc3OCC3CC3)nc12`, in series [4], the half-inhibitory concentration (IC50) turned out to be 47 µM.

As to `CCCc1nn(C)c2c(=O)[nH]c(-c3ccccc3NS(C)(=O)=O)nc12`, the 50% inhibitory concentration (IC50) in series [4] amounted to 83 µM.

Take `CCCc1nn(C)c2c(=O)[nH]c(-c3ccccc3OCC)nc12`: the values for the IC50 in series [2], in series [3] and in series [4] were 0.027 µM, 0.79 µM and greater than 100 µM, respectively. Moreover, the log distribution coefficient (logD) in series [1] amounted to 4.

`CCCc1nn(C)c2c(=O)[nH]c(-c3cc(S(=O)(=O)N4CCNCC4)ccc3OCC)nc12`: the IC50 in series [3] was 0.39 µM; in series [4], greater than 100 µM. In series [1], this compound yielded a logD of 1.5.

As for `CCCc1nn(C)c2c(=O)[nH]c(-c3cc(S(=O)(=O)N4CCN(CCO)CC4)ccc3OCC)nc12` [LODENAFIL], the figures for the 50% inhibitory concentration (IC50) in series [3] and in series [4] were 0.46 µM and 62 µM, respectively. In series [1], this compound had a log distribution coefficient (logD) of 2.

In the case of `CCCOc1ccccc1-c1nc2[nH]nnc2c(=O)[nH]1` [ZAPRINAST], the values for the IC50 in series [3] and in series [4] were 9.4 µM and greater than 100 µM, respectively.
